{"source": "PubChem BioAssay AID2060906", "about": "(Molecular Pharmacology Branch, DTP, NCI, 2025);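 note: spheroids exposed to compounds for seven days before readout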;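 for viability, T/C: luminescence viability expressed relative to DMSO vehicle wells set as 100%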", "system": "485176-168-R4-J1-PDC complex spheroid growth", "assay": "Anticancer human tumor 485176-168-R4-J1-PDC patient-derived pancreatic adenocarcinoma cell line growth inhibition [RAS]", "details": "for IC50: curve of first compound; for viability, T/C: stronger effect = lower value", "method_in_brief": "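Agents were tested in combination matrices in half-log decrements from a top concentration at or near clinical Cmax (10 microM if undetermined). Targets were multi-cell spheroids of tumour lines plus HUVEC and MSC stromal cells.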", "key": {"[1]": {"details": "second compound 0.00316 µM, first compound 0.0316 µM"}, "[2]": {"details": "second compound 0.00316 µM, first compound 0.1 µM"}, "[3]": {"details": "second compound 0.00316 µM, first compound 0.316 µM"}, "[4]": {"details": "second compound 0.00316 µM, first compound 1 µM"}, "[5]": {"details": "second compound 0.00316 µM, first compound 3.16 µM"}, "[6]": {"details": "second compound 0.00316 µM, first compound 10 µM"}, "[7]": {"details": "second compound 0.01 µM, first compound 0.0316 µM"}, "[8]": {"details": "second compound 0.01 µM, first compound 0.1 µM"}, "[9]": {"details": "second compound 0.01 µM, first compound 0.316 µM"}, "[10]": {"details": "second compound 0.01 µM, first compound 1 µM"}, "[11]": {"details": "second compound 0.01 µM, first compound 3.16 µM"}, "[12]": {"details": "second compound 0.01 µM, first compound 10 µM"}, "[13]": {"details": "second compound 0.0316 µM, first compound 0.0316 µM"}, "[14]": {"details": "second compound 0.0316 µM, first compound 0.1 µM"}, "[15]": {"details": "second compound 0.0316 µM, first compound 0.316 µM"}, "[16]": {"details": "second compound 0.0316 µM, first compound 1 µM"}, "[17]": {"details": "second compound 0.0316 µM, first compound 3.16 µM"}, "[18]": {"details": "second compound 0.0316 µM, first compound 10 µM"}, "[19]": {"details": "second compound 0.1 µM, first compound 0.0316 µM"}, "[20]": {"details": "second compound 0.1 µM, first compound 0.1 µM"}, "[21]": {"details": "second compound 0.1 µM, first compound 0.316 µM"}, "[22]": {"details": "second compound 0.1 µM, first compound 1 µM"}, "[23]": {"details": "second compound 0.1 µM, first compound 3.16 µM"}, "[24]": {"details": "second compound 0.1 µM, first compound 10 µM"}, "[25]": {"details": "second compound 0.316 µM, first compound 0.0316 µM"}, "[26]": {"details": "second compound 0.316 µM, first compound 0.1 µM"}, "[27]": {"details": "second compound 0.316 µM, first compound 0.316 µM"}, "[28]": {"details": "second compound 0.316 µM, first compound 1 µM"}, "[29]": {"details": "second compound 0.316 µM, first compound 3.16 µM"}, "[30]": {"details": "second compound 0.316 µM, first compound 10 µM"}, "[31]": {"details": "second compound 1 µM, first compound 0.0316 µM"}, "[32]": {"details": "second compound 1 µM, first compound 0.1 µM"}, "[33]": {"details": "second compound 1 µM, first compound 0.316 µM"}, "[34]": {"details": "second compound 1 µM, first compound 1 µM"}, "[35]": {"details": "second compound 1 µM, first compound 3.16 µM"}, "[36]": {"details": "second compound 1 µM, first compound 10 µM"}}, "data": [{"smiles": "CC(=O)OC12COC1CC(O)C1(C)C(=O)C(O)C3=C(C)C(OC(=O)C(O)C(NC(=O)OC(C)(C)C)c4ccccc4)CC(O)(C(OC(=O)c4ccccc4)C21)C3(C)C", "note": "(centres undefined) + C=CC(=O)N1CCN(c2nc(OCC3CCCN3C)nc3c(F)c(-c4nc(N)cc(C)c4C(F)(F)F)c(Cl)cc23)C(C)C1", "values": [{"measurement": "IC50", "setting": "second compound 0.00316 µM", "result": "< 31.6", "unit": "nM"}, {"measurement": "IC50", "setting": "second compound 0.01 µM", "result": "< 31.6", "unit": "nM"}, {"measurement": "IC50", "setting": "second compound 0.0316 µM", "result": "< 31.6", "unit": "nM"}, {"measurement": "IC50", "setting": "second compound 0.1 µM", "result": "< 31.6", "unit": "nM"}, {"measurement": "IC50", "setting": "second compound 0.316 µM", "result": "< 31.6", "unit": "nM"}, {"measurement": "IC50", "setting": "second compound 1 µM", "result": "< 31.6", "unit": "nM"}, {"measurement": "viability, T/C", "setting": "[1]", "result": 13.2, "unit": "%"}, {"measurement": "viability, T/C", "setting": "[2]", "result": 9.9, "unit": "%"}, {"measurement": "viability, T/C", "setting": "[3]", "result": 13.1, "unit": "%"}, {"measurement": "viability, T/C", "setting": "[4]", "result": 11.3, "unit": "%"}, {"measurement": "viability, T/C", "setting": "[5]", "result": 15.8, "unit": "%"}, {"measurement": "viability, T/C", "setting": "[6]", "result": 18.9, "unit": "%"}, {"measurement": "viability, T/C", "setting": "[7]", "result": 17, "unit": "%"}, {"measurement": "viability, T/C", "setting": "[8]", "result": 12.3, "unit": "%"}, {"measurement": "viability, T/C", "setting": "[9]", "result": 11.4, "unit": "%"}, {"measurement": "viability, T/C", "setting": "[10]", "result": 11.7, "unit": "%"}, {"measurement": "viability, T/C", "setting": "[11]", "result": 13.7, "unit": "%"}, {"measurement": "viability, T/C", "setting": "[12]", "result": 16.3, "unit": "%"}, {"measurement": "viability, T/C", "setting": "[13]", "result": 15.2, "unit": "%"}, {"measurement": "viability, T/C", "setting": "[14]", "result": 13.6, "unit": "%"}, {"measurement": "viability, T/C", "setting": "[15]", "result": 12, "unit": "%"}, {"measurement": "viability, T/C", "setting": "[16]", "result": 15.1, "unit": "%"}, {"measurement": "viability, T/C", "setting": "[17]", "result": 13.3, "unit": "%"}, {"measurement": "viability, T/C", "setting": "[18]", "result": 17.9, "unit": "%"}, {"measurement": "viability, T/C", "setting": "[19]", "result": 13.3, "unit": "%"}, {"measurement": "viability, T/C", "setting": "[20]", "result": 13.8, "unit": "%"}, {"measurement": "viability, T/C", "setting": "[21]", "result": 10.5, "unit": "%"}, {"measurement": "viability, T/C", "setting": "[22]", "result": 11.3, "unit": "%"}, {"measurement": "viability, T/C", "setting": "[23]", "result": 16.7, "unit": "%"}, {"measurement": "viability, T/C", "setting": "[24]", "result": 17.9, "unit": "%"}, {"measurement": "viability, T/C", "setting": "[25]", "result": 18.4, "unit": "%"}, {"measurement": "viability, T/C", "setting": "[26]", "result": 13.3, "unit": "%"}, {"measurement": "viability, T/C", "setting": "[27]", "result": 11.8, "unit": "%"}, {"measurement": "viability, T/C", "setting": "[28]", "result": 9.75, "unit": "%"}, {"measurement": "viability, T/C", "setting": "[29]", "result": 15.5, "unit": "%"}, {"measurement": "viability, T/C", "setting": "[30]", "result": 19.4, "unit": "%"}, {"measurement": "viability, T/C", "setting": "[31]", "result": 12.6, "unit": "%"}, {"measurement": "viability, T/C", "setting": "[32]", "result": 9.69, "unit": "%"}, {"measurement": "viability, T/C", "setting": "[33]", "result": 9.77, "unit": "%"}, {"measurement": "viability, T/C", "setting": "[34]", "result": 9.87, "unit": "%"}, {"measurement": "viability, T/C", "setting": "[35]", "result": 15.3, "unit": "%"}, {"measurement": "viability, T/C", "setting": "[36]", "result": 18.2, "unit": "%"}]}, {"smiles": "CCC(CC)c1cc(NC2CCC(N)C2)n2nccc2n1", "note": "(centres undefined) + C=CC(=O)N1CCN(c2nc(OCC3CCCN3C)nc3c(F)c(-c4nc(N)cc(C)c4C(F)(F)F)c(Cl)cc23)C(C)C1", "values": [{"measurement": "IC50", "setting": "second compound 0.00316 µM", "result": 1540, "unit": "nM"}, {"measurement": "IC50", "setting": "second compound 0.01 µM", "result": 1450, "unit": "nM"}, {"measurement": "IC50", "setting": "second compound 0.0316 µM", "result": 1460, "unit": "nM"}, {"measurement": "IC50", "setting": "second compound 0.1 µM", "result": 1680, "unit": "nM"}, {"measurement": "IC50", "setting": "second compound 0.316 µM", "result": 1510, "unit": "nM"}, {"measurement": "IC50", "setting": "second compound 1 µM", "result": 1460, "unit": "nM"}, {"measurement": "viability, T/C", "setting": "[1]", "result": 103, "unit": "%"}, {"measurement": "viability, T/C", "setting": "[2]", "result": 101, "unit": "%"}, {"measurement": "viability, T/C", "setting": "[3]", "result": 102, "unit": "%"}, {"measurement": "viability, T/C", "setting": "[4]", "result": 78.5, "unit": "%"}, {"measurement": "viability, T/C", "setting": "[5]", "result": 3.09, "unit": "%"}, {"measurement": "viability, T/C", "setting": "[6]", "result": 0.53, "unit": "%"}, {"measurement": "viability, T/C", "setting": "[7]", "result": 111, "unit": "%"}, {"measurement": "viability, T/C", "setting": "[8]", "result": 98.3, "unit": "%"}, {"measurement": "viability, T/C", "setting": "[9]", "result": 77.1, "unit": "%"}, {"measurement": "viability, T/C", "setting": "[10]", "result": 72.9, "unit": "%"}, {"measurement": "viability, T/C", "setting": "[11]", "result": 3.14, "unit": "%"}, {"measurement": "viability, T/C", "setting": "[12]", "result": 0.53, "unit": "%"}, {"measurement": "viability, T/C", "setting": "[13]", "result": 101, "unit": "%"}, {"measurement": "viability, T/C", "setting": "[14]", "result": 103, "unit": "%"}, {"measurement": "viability, T/C", "setting": "[15]", "result": 103, "unit": "%"}, {"measurement": "viability, T/C", "setting": "[16]", "result": 72.9, "unit": "%"}, {"measurement": "viability, T/C", "setting": "[17]", "result": 2.99, "unit": "%"}, {"measurement": "viability, T/C", "setting": "[18]", "result": 0.57, "unit": "%"}, {"measurement": "viability, T/C", "setting": "[19]", "result": 97.7, "unit": "%"}, {"measurement": "viability, T/C", "setting": "[20]", "result": 104, "unit": "%"}, {"measurement": "viability, T/C", "setting": "[21]", "result": 93.3, "unit": "%"}, {"measurement": "viability, T/C", "setting": "[22]", "result": 88.8, "unit": "%"}, {"measurement": "viability, T/C", "setting": "[23]", "result": 3.12, "unit": "%"}, {"measurement": "viability, T/C", "setting": "[24]", "result": 0.5, "unit": "%"}, {"measurement": "viability, T/C", "setting": "[25]", "result": 87.8, "unit": "%"}, {"measurement": "viability, T/C", "setting": "[26]", "result": 93.5, "unit": "%"}, {"measurement": "viability, T/C", "setting": "[27]", "result": 95.3, "unit": "%"}, {"measurement": "viability, T/C", "setting": "[28]", "result": 76.2, "unit": "%"}, {"measurement": "viability, T/C", "setting": "[29]", "result": 3.3, "unit": "%"}, {"measurement": "viability, T/C", "setting": "[30]", "result": 0.53, "unit": "%"}, {"measurement": "viability, T/C", "setting": "[31]", "result": 94.8, "unit": "%"}, {"measurement": "viability, T/C", "setting": "[32]", "result": 110, "unit": "%"}, {"measurement": "viability, T/C", "setting": "[33]", "result": 89.6, "unit": "%"}, {"measurement": "viability, T/C", "setting": "[34]", "result": 73.3, "unit": "%"}, {"measurement": "viability, T/C", "setting": "[35]", "result": 2.65, "unit": "%"}, {"measurement": "viability, T/C", "setting": "[36]", "result": 0.64, "unit": "%"}]}]}
